Experimental data as given in ChEMBL document CHEMBL1212761, “Biologic activities of the TolC-like protein of Neisseria meningitidis as assessed by functional complementation in Escherichia coli” (2010).
Converted amounts (≈) assume the structure as drawn.

What was measured:
Format in all cases: functional
[1] = system: Neisseria meningitidis; assay: Antimicrobial activity against Neisseria meningitidis M7 by agar dilution method
[2] = system: Neisseria meningitidis; assay: Antimicrobial activity against Neisseria meningitidis M7tolC::Kan by agar dilution method
[3] = system: Neisseria meningitidis; assay: Antimicrobial activity against Neisseria meningitidis M7mtrE::Spc by agar dilution method
[4] = system: Neisseria meningitidis; assay: Antimicrobial activity against Neisseria meningitidis M7tolC::Kan mtr::Spc by agar dilution method
[5] = system: Escherichia coli; assay: Antimicrobial activity against Escherichia cloi RAM1129 transfected with pGCC4 containg IPTG-inducible lacZ promoter by agar dilution method
[6] = system: Escherichia coli; assay: Antimicrobial activity against Escherichia cloi RAM1129 transfected with pNK1 containg Neisseria meningitidis tolC gene by agar dilution method
[7] = system: Escherichia coli; assay: Antimicrobial activity against Escherichia cloi RAM4100 transfected with pGCC4 containg IPTG-inducible lacZ promoter by agar dilution method
[8] = system: Escherichia coli; assay: Antimicrobial activity against Escherichia cloi RAM4100 transfected with pNK1 containg Neisseria meningitidis tolC gene by agar dilution method
[9] = system: Escherichia coli; assay: Antimicrobial activity against Escherichia coli RAM4100 by agar dilution method
[10] = system: Escherichia coli; assay: Antimicrobial activity against Escherichia coli RAM1129 by agar dilution method

| MIC [1] | MIC [2] | MIC [3] | MIC [4] | MIC [9] | MIC [10] | SMILES | MIC [5] | MIC [6] | MIC [7] | MIC [8] |
| --- | --- | --- | --- | --- | --- | --- | --- | --- | --- | --- |
| 2 µg/mL (≈ 2.67 µM) | 2 µg/mL (≈ 2.67 µM) | 0.125 µg/mL (≈ 0.167 µM) | 0.125 µg/mL (≈ 0.167 µM) | – | – | CC[C@H]1OC(=O)[C@H](C)[C@@H](O[C@H]2C[C@@](C)(OC)[C@@H](O)[C@H](C)O2)[C@H](C)[C@@H](O[C@@H]2O[C@H](C)C[C@H](N(C)C)[C@H]2O)[C@](C)(O)C[C@@H](C)CN(C)[C@H](C)[C@@H](O)[C@]1(C)O [AZITHROMYCIN] | – | – | – | – |
| 0.02 µg/mL (≈ 0.0604 µM) | 0.02 µg/mL (≈ 0.0604 µM) | 0.02 µg/mL (≈ 0.0604 µM) | 0.02 µg/mL (≈ 0.0604 µM) | – | – | O=C(O)c1cn(C2CC2)c2cc(N3CCNCC3)c(F)cc2c1=O [CIPROFLOXACIN] | – | – | – | – |
| – | – | – | – | – | – | CC[C@H]1OC(=O)[C@H](C)[C@@H](O[C@H]2C[C@@](C)(OC)[C@@H](O)[C@H](C)O2)[C@H](C)[C@@H](O[C@@H]2O[C@H](C)C[C@H](N(C)C)[C@H]2O)[C@](C)(O)C[C@@H](C)C(=O)[C@H](C)[C@@H](O)[C@]1(C)O [ERYTHROMYCIN] | 5 µg/mL (≈ 6.81 µM) | 5 µg/mL (≈ 6.81 µM) | 300 µg/mL (≈ 409 µM) | 300 µg/mL (≈ 409 µM) |
| – | – | – | – | > 40 µg/mL | 1.5 µg/mL | CN(C)c1ccc(C(=C2C=CC(=[N+](C)C)C=C2)c2ccc(N(C)C)cc2)cc1.[Cl-] [GENTIAN VIOLET] | 1.5 µg/mL | > 40 µg/mL | – | – |
| – | – | – | – | 500 µg/mL (≈ 816 µM) | 40 µg/mL (≈ 65.3 µM) | CO[C@@H]1[C@@H](OC(N)=O)[C@@H](O)[C@H](Oc2ccc3c(O)c(NC(=O)c4ccc(O)c(CC=C(C)C)c4)c(=O)oc3c2C)OC1(C)C [NOVOBIOCIN] | 40 µg/mL (≈ 65.3 µM) | 500 µg/mL (≈ 816 µM) | – | – |
| 400 µg/mL (≈ 1560 µM) | 400 µg/mL (≈ 1560 µM) | 50 µg/mL (≈ 195 µM) | 50 µg/mL (≈ 195 µM) | – | – | CCCCCCCCCCCCCCCC(=O)O [PALMITIC ACID] | – | – | – | – |

| SMILES | MIC [1] | MIC [2] | MIC [3] | MIC [4] | MIC [9] | MIC [10] | MIC [5] | MIC [6] | MIC [7] | MIC [8] |
| --- | --- | --- | --- | --- | --- | --- | --- | --- | --- | --- |
| CC[C@H](C)[C@H](NC(=O)[C@H](CCCCN)NC(=O)[C@H](CCC(=O)O)NC(=O)[C@H](CCCCN)NC(=O)[C@H](CO)NC(=O)[C@H](CCCCN)NC(=O)[C@H](CCCNC(=N)N)NC(=O)[C@H](Cc1ccccc1)NC(=O)[C@H](Cc1ccccc1)NC(=O)[C@H](CC(=O)O)NC(=O)CNC(=O)[C@H](CC(C)C)NC(=O)[C@@H](N)CC(C)C)C(=O)NCC(=O)N[C@@H](CCCCN)C(=O)N[C@@H](CCC(=O)O)C(=O)N[C@@H](Cc1ccccc1)C(=O)N[C@@H](CCCCN)C(=O)N[C@@H](CCCNC(=N)N)C(=O)N[C@H](C(=O)N[C@H](C(=O)N[C@@H](CCC(N)=O)C(=O)N[C@@H](CCCNC(=N)N)C(=O)N[C@H](C(=O)N[C@@H](CCCCN)C(=O)N[C@@H](CC(=O)O)C(=O)N[C@@H](Cc1ccccc1)C(=O)N[C@@H](CC(C)C)C(=O)N[C@@H](CCCNC(=N)N)C(=O)N[C@@H](CC(N)=O)C(=O)N[C@@H](CC(C)C)C(=O)N[C@H](C(=O)N1CCC[C@H]1C(=O)N[C@@H](CCCNC(=N)N)C(=O)N[C@H](C(=O)N[C@@H](CCC(=O)O)C(=O)N[C@@H](CO)C(=O)O)[C@@H](C)O)C(C)C)[C@@H](C)CC)C(C)C)[C@@H](C)CC [CATHELICIDIN] | 7.8 µg/mL (≈ 1.74 µM) | 7.8 µg/mL (≈ 1.74 µM) | 1.98 µg/mL (≈ 0.441 µM) | 1.98 µg/mL (≈ 0.441 µM) | – | – | – | – | – | – |
| CC[n+]1c(-c2ccccc2)c2cc(N)ccc2c2ccc(N)cc21.[Br-] [HOMIDIUM BROMIDE] | 12 µg/mL | 12 µg/mL | 0.75 µg/mL | 0.75 µg/mL | > 200 µg/mL | 5 µg/mL | 5 µg/mL | > 200 µg/mL | – | – |
